Experimental data published in US20230265037A1, “METHOD FOR MAN[…] CALCIUM CITRATE BY USING SHELL AND APPLICATION THEREOF” (KOREA RESEARCH INSTITUTE OF CHEMICAL TECHNOLOGY, priority 2020, published 2023).
Where “and” joins values, the source holds several entries; their conditions need not be identical. Equal values may be shown once.

Test: Fluorine removal experiment (residual fluorine concentration of filtrate by ion concentration meter)
Conditions: for removal rate: HF solution 1,000 ppm (experimental value 970 ppm), reacted 30 minutes
Description: In order to confirm the fluorine removal rate using the powder or solution prepared in Examples 1 to 3, a fluorine removal experiment was performed by the following method, and the residual fluorine concentration of the filtrate remaining after the experiment was measured using an ion concentration meter and is shown in Tables 2 to 4. At this time, a Metrohm 930 compact IC Flex model from Metrohm was used as the ion concentration meter.
A 50% hydrofluoric acid (HF) solution with a concentration of 1,000 ppm was prepared, and so that the molar ratio of calcium ion:fluoride ion is 1:2, 2:2, 10.56 g and 21.12 g of the mono calcium citrate powder recovered in Example 1 were mixed with 1 L of water to make a solution, the hydrofluoric acid and the solution were reacted for 30 minutes, and the results are shown in Table 2.
A 50% hydrofluoric acid (HF) solution with a concentration of 1,000 ppm was prepared, 4.75 g, 9.5 g, and 19.1 g of the tricalcium citrate powder recovered in Example 2 were mixed with 1 L of water so that the molar ratio of calcium ion:fluoride ion was 1:2, 2:2, and 4:2 to form a slurry, the hydrofluoric acid and the slurry were reacted for 30 minutes, and the results are shown in Table 3. (Tricalcium citrate (C12H10Ca3O14) contains 3 moles of calcium ions per mole, so ⅓ of the theoretical amount is added.)
A 50% hydrofluoric acid (HF) solution with a concentration of 1,000 ppm was prepared, the solution in which the shells and citric acid were dissolved prepared in Example 3 was mixed with 1 L of water and reacted for 30 minutes, and the results are shown in Table 4.

[1] = molar ratio calcium ion:fluoride ion 1:2
[2] = molar ratio calcium ion:fluoride ion 2:2

Row | Structure (SMILES) | removal rate [1] | removal rate [2] | fluorine removal rate (summary) (summary of Tables 2 and 3) | removal rate (molar ratio calcium ion:fluoride ion 4:2)
1 | O=C([O-])CC(O)(CC(=O)O)C(=O)O.O=C([O-])CC(O)(CC(=O)O)C(=O)O.[Ca+2] [Example 1, mono calcium citrate] | 99.25% | 99.77% | ≥ 99% | 
2 | O=C([O-])CC(O)(CC(=O)[O-])C(=O)[O-].O=C([O-])CC(O)(CC(=O)[O-])C(=O)[O-].[Ca+2].[Ca+2].[Ca+2] [Example 2, tricalcium citrate] | 97.63% | 98.33% |  | 98.28% and 98.29%
